# Assay results taken from patent publication US9884063B2, “Amido-substituted azole compounds” (Bayer Pharma Aktiengesellschaft, priority 2014, dated 2018).
# Target: T1, TNKS2 (Homo sapiens, UniProt Q9H2K2)
# T1 sequence (Q9H2K2 1-1166): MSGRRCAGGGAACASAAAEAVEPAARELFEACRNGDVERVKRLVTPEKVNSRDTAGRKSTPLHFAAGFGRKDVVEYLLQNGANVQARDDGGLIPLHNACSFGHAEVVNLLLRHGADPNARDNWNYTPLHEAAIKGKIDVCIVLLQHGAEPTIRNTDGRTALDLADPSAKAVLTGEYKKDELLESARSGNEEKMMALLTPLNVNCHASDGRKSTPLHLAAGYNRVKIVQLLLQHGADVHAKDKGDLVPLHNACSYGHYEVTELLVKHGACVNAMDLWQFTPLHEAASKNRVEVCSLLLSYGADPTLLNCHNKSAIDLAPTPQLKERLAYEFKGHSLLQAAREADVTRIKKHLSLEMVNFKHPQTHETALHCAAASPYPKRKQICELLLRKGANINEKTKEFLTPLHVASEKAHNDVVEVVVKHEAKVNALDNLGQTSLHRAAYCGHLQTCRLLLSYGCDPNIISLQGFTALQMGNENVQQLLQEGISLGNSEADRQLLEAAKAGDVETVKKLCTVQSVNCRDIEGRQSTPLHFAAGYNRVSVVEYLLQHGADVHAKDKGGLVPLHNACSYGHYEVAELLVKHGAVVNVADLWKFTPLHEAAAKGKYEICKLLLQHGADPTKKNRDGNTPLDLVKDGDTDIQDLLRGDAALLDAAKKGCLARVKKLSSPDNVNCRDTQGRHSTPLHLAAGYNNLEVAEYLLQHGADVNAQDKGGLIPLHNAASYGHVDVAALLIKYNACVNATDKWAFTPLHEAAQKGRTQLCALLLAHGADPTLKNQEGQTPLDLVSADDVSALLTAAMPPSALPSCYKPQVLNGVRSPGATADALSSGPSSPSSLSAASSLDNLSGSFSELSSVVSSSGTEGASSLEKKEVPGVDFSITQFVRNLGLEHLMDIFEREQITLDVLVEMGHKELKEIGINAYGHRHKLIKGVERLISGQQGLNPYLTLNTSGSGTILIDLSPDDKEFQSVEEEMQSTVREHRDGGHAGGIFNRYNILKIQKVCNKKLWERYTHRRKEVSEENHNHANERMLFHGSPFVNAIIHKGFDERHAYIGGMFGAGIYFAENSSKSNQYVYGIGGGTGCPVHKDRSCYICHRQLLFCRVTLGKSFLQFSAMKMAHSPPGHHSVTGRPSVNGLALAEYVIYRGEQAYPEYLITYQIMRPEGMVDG
# Experiment: Modified TNKS2 Assay 3 (BPS kit #80578, biotin-NAD+, 96 well)
# Type: biochemical
# Details: human TNKS2, BPS kit #80578, 96 well
# Method: The potency of the compounds against human TNKS2 according to the invention was assessed using a commercially available biotin/streptavidin binding assay kits from BPS Bioscience, San Diego, USA (Catalog #80578 for TNKS2). The incorporation of a biotin-labeled NAD+ during the […] catalyzed ribosylation of a suitable protein substrate was detected using with a streptavidin-HRP coupled chemi-luminescent readout. The intensity of the readout signal is proportional to the incorporated NAD^+. Inhibition of TNKS2 leads to a decreased incorporation of NAD^+ and consequently to a lower readout signal intensity in the corresponding TNKS2 assays. The concentration of a test compound that inhibits the enzyme activity by 50% (corresponds to half of the normed readout signal intensity) is reported as IC50. The assay conducted in a 96 well MTP format according to the manufacturer's protocol and using a BMG Pherastar MTP reader [BMG-Labtech, Offenburg, Germany].
row,Structure (SMILES),IC50 [µM]
1,"CNC(=O)c1nc[nH]c1C(=O)Nc1ccc(NC(=O)c2ccc(F)cc2Cl)cc1 [Example 12, N^5-{4-[(2-chloro-4-fluorobenzoyl)amino]phenyl}-N^4-methyl-1H-imidazole-4,5-dicarboxamide]",0.06
2,"CNC(=O)c1nc[nH]c1C(=O)Nc1ccc(NC(=O)c2ccc(F)cc2Cl)nc1 [Example 16, N^5-{6-[(2-chloro-4-fluorobenzoyl)amino]pyridin-3-yl}-N^4-methyl-1H-imidazole-4,5-dicarboxamide]",0.04
3,"O=C(Nc1ccc(NC(=O)c2[nH]cnc2C(=O)NCC(F)(F)F)cc1)c1ccc(F)cc1Cl [Example 30, N^4-{4-[(2-chloro-4-fluorobenzoyl)amino]phenyl}-N^5-(2,2,2-trifluoroethyl)-1H-imidazole-4,5-dicarboxamide]",0.13
4,"CNC(=O)c1nc[nH]c1C(=O)Nc1ccc(NC(=O)c2c(F)cc(F)cc2Cl)cc1 [Example 118, N^5-{4-[(2-chloro-4,6-difluorobenzoyl)amino]phenyl}-N^4-methyl-1H-imidazole-4,5-dicarboxamide]",0.23
5,"O=C(NCCN1CCCCC1)c1nc[nH]c1C(=O)Nc1ccc(NC(=O)c2c(F)cc(F)cc2Cl)cc1 [Example 119, N^5-{4-[(2-chloro-4,6-difluorobenzoyl)amino]phenyl}-N^4-[2-(piperidin-1-yl)ethyl]-1H-imidazole-4,5-dicarboxamide]",< 0.0005
6,NC(=O)c1nc[nH]c1C(=O)Nc1ccc(NC(=O)c2ccc(F)cc2Cl)cc1 [Example 121],0.11
7,"CC1CCN(CCNC(=O)c2nc[nH]c2C(=O)Nc2ccc(NC(=O)c3ccc(F)cc3Cl)cc2)CC1 [Example 126, N^5-{4-[(2-chloro-4-fluorobenzoyl)amino]phenyl}-N^4-[2-(4-methylpiperidin-1-yl)ethyl]-1H-imidazole-4,5-dicarboxamide]",0.001
8,"COCCNC(=O)c1[nH]cnc1C(=O)Nc1ccc(NC(=O)c2ccc(F)cc2Cl)cc1 [Example 130, N^4-{4-[(2-chloro-4-fluorobenzoyl)amino]phenyl}-N^5-(2-methoxyethyl)-1H-imidazole-4,5-dicarboxamide]",0.17
9,"CC1CCCN(CCNC(=O)c2[nH]cnc2C(=O)Nc2ccc(NC(=O)c3ccc(F)cc3Cl)cc2)C1 (centres unmarked) [Example 208, N^4-{4-[(2-chloro-4-fluorobenzoyl)amino]phenyl}-N^5-[2-(3-methylpiperidin-1-yl)ethyl]-1H-imidazole-4,5-dicarboxamide]",0.003
10,"O=C(Nc1ccc(NC(=O)c2nc[nH]c2C(=O)NCCN2CCCC(F)C2)cc1)c1ccc(F)cc1Cl (centres unmarked) [Example 226, N^4-{4-[(2-chloro-4-fluorobenzoyl)amino]phenyl}-N^5-[2-(3-fluoropiperidin-1-yl)ethyl]-1H-imidazole-4,5-dicarboxamide]",0.0009
11,"O=C(Nc1ccc(NC(=O)c2nc[nH]c2C(=O)NC2CCOC2)cc1)c1ccc(F)cc1Cl (centres unmarked) [Example 236, N^4-{4-[(2-chloro-4-fluorobenzoyl)amino]phenyl}-N^5-(tetrahydrofuran-3-yl)-1H-imidazole-4,5-dicarboxamide]",0.08
12,"CNC(=O)c1nc[nH]c1C(=O)Nc1ccc(NC(=O)c2cc(OC)c(OC)cc2Cl)cc1 [Example 240, N^5-{4-[(2-chloro-4,5-dimethoxybenzoyl)amino]phenyl}-N^4-methyl-1H-imidazole-4,5-dicarboxamide]",0.03
13,"CNC(=O)c1nc[nH]c1C(=O)Nc1ccc(NC(=O)c2cc(F)c(F)cc2Cl)cc1 [Example 242, N^5-{4-[(2-chloro-4,5-difluorobenzoyl)amino]phenyl}-N^4-methyl-1H-imidazole-4,5-dicarboxamide]",0.12
14,"CNC(=O)c1nc[nH]c1C(=O)Nc1ccc(NC(=O)c2ccc(C)cc2Cl)cc1 [Example 244, N^5-{4-[(2-chloro-4-methylbenzoyl)amino]phenyl}-N^4-methyl-1H-imidazole-4,5-dicarboxamide]",0.03
